Measured values: publication PMC3836994, “Killer Bee Molecules: Antimicrobial Peptides as Effector Molecules to Target Sporogonic Stages of Plasmodium” (PLoS Pathogens, 2013)
No end group written: not given here.

Columns and labels:
[1] = system: P. falciparum; assay: Cultured P. falciparum gametocytes membrane-fed to An. gambiae (oocyst prevalence and intensity); assay type: in vivo, Plasmodium falciparum; conditions: 50 µM; for Oocyst intensity (mean number of oocysts per gut, range in parentheses), peptide / Oocyst prevalence (oocyst positive mosquitoes), peptide: cultured gametocytes, An. gambiae
Description: P. falciparum NF54 gametocytes were produced through large-scale automated culture at the Pasteur Institute, Paris, [69]. Gametocytes were grown in 10 ml RPMI 1640 medium (Invitrogen), supplemented with 25 mM HEPES and L-glutamine, 10% heat-inactivated human serum and hypoxanthine (20 mg/L) under a constant gas supply (5% CO2, 1% O2, 94% N2). Fresh red blood cells (RBCs) were added to obtain a 7% haematocrit. Fourteen days after initiating the culture, gametocyte maturity was assessed on thin Giemsa-stained blood smears, and male gametocyte maturity verified by exflagellation tests. Gametocyte cultures were centrifuged for 5 min at 1500 rpm and the ∼500–600 µl pellet resuspended in fresh RBCs and AB human serum to give a final haematocrit of 40%.
Blood containing mature gametocytes (475 µl) was added to 25 µl of the test AMP (50 µM final concentration). Peptides were replaced by 25 µl of sterile deionized water for each control. The blood/parasite/peptide mixture was placed in a Hemotek membrane feeder, previously warmed to 37°C. For each feed, 70 to 100 nulliparous female An. gambiae mosquitoes were left to feed in the dark for 15 min and only fully engorged females were transferred to small cages and provided with 10% sucrose containing 0.05% PABA. After 8 days, 30 midguts were dissected and stained with bromo fluorescein for the detection of oocysts.

[2] = system: P. berghei ookinetes; assay: P. berghei ookinete viability in vitro (erythrosin B); assay type: cell-based, Plasmodium berghei; conditions: 30 min; for Reduction in ookinete viability: versus control
[3] = 50 µM of single peptide, n = 150 ookinetes per treatment per replicate

Row | Sequence | Oocyst intensity (mean number of oocysts per gut, range in parentheses), peptide ([1]; Replicate 1) | Oocyst prevalence (oocyst positive mosquitoes), peptide ([1]; Replicate 1, dissected after 8 days) | Oocyst intensity (mean number of oocysts per gut, range in parentheses), peptide ([1]; Replicate 2) | Oocyst prevalence (oocyst positive mosquitoes), peptide ([1]; Replicate 2) | Oocyst intensity (mean number of oocysts per gut, range in parentheses), peptide ([1]; Replicate 3) | Oocyst prevalence (oocyst positive mosquitoes), peptide ([1]; Replicate 3) | Average reduction of intensity of infection ([1]; over three replicates) | Average reduction of prevalence ([1]; over three replicates) | Average ookinete viability (3 reps), peptide [2, 3] | Reduction in ookinete viability ([2]; 50 µM of single peptide) | Average ookinete viability (3 reps), peptide ([2]; 100 µM of single peptide) | Reduction in ookinete viability ([2]; 100 µM of single peptide) | Reduction in ookinete viability ([2]; 100 µM of single peptide, listed as Vida3 dimer)
1 | AGYLLGKINLKALAALAKKILGGAGYLLGKINLKALAALAKKIL [TP10 dimer, TP10 (dimer)] | <1 (0–2) | 17% (30) | 0 | 0% (30) | 2 (0–14) | 37% (30) | 82% | 60% | 0% | 100% |  |  | 
2 | KFPKFRRGIPFLFVGPSGKFPKFRRGIPFLFV [Vida 3 dimer] |  |  |  |  |  |  |  |  | 4% | 96% | 0% | 100% | 100%
